Structures can show the parent of a compound that is named as a salt. ± gives the standard deviation of the averaged measurements.
Key:
[1] = system: 409B2 hiPSC (iCRISPR Cas9, FRMD7 editing); test: NHEJ-attributed indel frequency relative to solvent control (fold (ratio to mock)); higher = more NHEJ outcomes
Experimental: (§1)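 Subset screen of 55 drugs tested at 5 concentrations around the effective screening dose, in 409B2 iCRISPR Cas9 hiPSCs editing FRMD7 with a ssDNA donor. Drugs were applied for 24 h. Viability was read by resazurin and editing outcomes by amplicon sequencing (HDR, NHEJ <2 bp microhomology, MMEJ ≥2 bp microhomology). Values are relative to solvent mock controls; two biological replicates.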

[2] = system: 409B2 hiPSC (iCRISPR Cas9, FRMD7 editing); test: cell survival relative to solvent control (fold (ratio to mock)); higher = more surviving cells
Experimental: as §1

[3] = system: 409B2 hiPSC (iCRISPR Cas9, FRMD7 editing); test: HDR (precise edit) frequency relative to solvent control (fold (ratio to mock)); higher = more homology-directed repair outcomes
Experimental: as §1

[4] = system: 409B2 hiPSC (iCRISPR Cas9, FRMD7 editing); test: MMEJ-attributed deletion frequency relative to solvent control (fold (ratio to mock)); higher = more MMEJ outcomes
Experimental: as §1

`CNCC[C@H](Oc1cccc2ccccc12)c1cccs1` [Duloxetine HCl] (in DMSO) showed an NHEJ-attributed indel frequency ([1]; 2000 nM) of 0.932 ± 0.027, an NHEJ-attributed indel frequency ([1]; 5000 nM) of 0.986 ± 0.0019 and an NHEJ-attributed indel frequency ([1]; 10000 nM) of 0.998 ± 0.025. It also gave an NHEJ-attributed indel frequency ([1]; 20000 nM) of 1.029 ± 0.0059, an NHEJ-attributed indel frequency ([1]; 50000 nM) of 0.517 ± 0.45 and a cell survival ([2]; 2000 nM) of 0.92. It also gave a cell survival ([2]; 5000 nM) of 1.24, a cell survival ([2]; 10000 nM) of 1.18 and a cell survival ([2]; 20000 nM) of 0.796. It also gave a cell survival ([2]; 50000 nM) of 0.0121, an HDR ([3]; 2000 nM) of 1.02 ± 0.13 and an HDR ([3]; 5000 nM) of 1.14 ± 0.024. The HDR ([3]; 10000 nM) was 1.02 ± 0.0038, the HDR ([3]; 20000 nM) was 0.88 ± 0.06 and the HDR ([3]; 50000 nM) was 0.33 ± 0.35. For the same compound, the MMEJ-attributed deletion frequency ([4]; 2000 nM) was 1.09 ± 0.25, the MMEJ-attributed deletion frequency ([4]; 5000 nM) was 1.14 ± 0.069 and the MMEJ-attributed deletion frequency ([4]; 10000 nM) was 1.36 ± 0.053. For the same compound, the MMEJ-attributed deletion frequency ([4]; 20000 nM) was 1.86 ± 0.036 and the MMEJ-attributed deletion frequency ([4]; 50000 nM) was 1.42 ± 0.81.
Compound `C[C@]12CC[C@@H]3c4ccc(O)cc4CC[C@H]3[C@@H]1C[C@@H](O)[C@@H]2O` [Estriol] (in DMSO) has an NHEJ-attributed indel frequency ([1]; 20 nM) of 0.994 ± 0.029, an NHEJ-attributed indel frequency ([1]; 50 nM) of 1.01 ± 0.0089 and an NHEJ-attributed indel frequency ([1]; 100 nM) of 1.01 ± 0.039. For the same compound, the NHEJ-attributed indel frequency ([1]; 200 nM) was 1.01 ± 0.018, the NHEJ-attributed indel frequency ([1]; 500 nM) was 1.02 ± 0.025 and the NHEJ-attributed indel frequency ([1]; 2000 nM) was 1.02 ± 0.015. It also gave an NHEJ-attributed indel frequency ([1]; 5000 nM) of 0.988 ± 0.043, an NHEJ-attributed indel frequency ([1]; 10000 nM) of 0.987 ± 0.043 and an NHEJ-attributed indel frequency ([1]; 20000 nM) of 0.9898 ± 0.0067. It also gave an NHEJ-attributed indel frequency ([1]; 50000 nM) of 0.986 ± 0.047, a cell survival ([2]; 20 nM) of 0.994 and a cell survival ([2]; 50 nM) of 1.11. The cell survival ([2]; 100 nM) was 0.907, the cell survival ([2]; 200 nM) was 1.02 and the cell survival ([2]; 500 nM) was 0.944. The cell survival ([2]; 2000 nM) was 0.929, the cell survival ([2]; 5000 nM) was 1.19 and the cell survival ([2]; 10000 nM) was 1.05. The cell survival ([2]; 20000 nM) was 0.994, the cell survival ([2]; 50000 nM) was 1.15 and the HDR ([3]; 20 nM) was 1.18 ± 0.038. It also gave an HDR ([3]; 50 nM) of 1.03 ± 0.06, an HDR ([3]; 100 nM) of 1.02 ± 0.079 and an HDR ([3]; 200 nM) of 1.04 ± 0.094. For the same compound, the HDR ([3]; 500 nM) was 1.08 ± 0.14, the HDR ([3]; 2000 nM) was 0.971 ± 0.021 and the HDR ([3]; 5000 nM) was 1.12 ± 0.049. For the same compound, the HDR ([3]; 10000 nM) was 1.07 ± 0.019, the HDR ([3]; 20000 nM) was 1.11 ± 0.019 and the HDR ([3]; 50000 nM) was 1.15 ± 0.078. It also gave an MMEJ-attributed deletion frequency ([4]; 20 nM) of 0.961 ± 0.14, an MMEJ-attributed deletion frequency ([4]; 50 nM) of 0.901 ± 0.016 and an MMEJ-attributed deletion frequency ([4]; 100 nM) of 0.923 ± 0.1. For the same compound, the MMEJ-attributed deletion frequency ([4]; 200 nM) was 0.917 ± 0.12, the MMEJ-attributed deletion frequency ([4]; 500 nM) was 0.932 ± 0.1 and the MMEJ-attributed deletion frequency ([4]; 2000 nM) was 0.923 ± 0.2. The MMEJ-attributed deletion frequency ([4]; 5000 nM) was 0.996 ± 0.019, the MMEJ-attributed deletion frequency ([4]; 10000 nM) was 1 ± 0.038 and the MMEJ-attributed deletion frequency ([4]; 20000 nM) was 1.04 ± 0.014. It also gave an MMEJ-attributed deletion frequency ([4]; 50000 nM) of 0.971 ± 0.029.
In the case of `CO[C@@H]1[C@H](OC(=O)/C=C/C=C/C=C/C=C/C(=O)O)CC[C@]2(CO2)[C@H]1[C@@]1(C)O[C@@H]1CC=C(C)C` [Fumagillin] (in DMSO), the NHEJ-attributed indel frequency ([1]; 20 nM) is reported as 0.883 ± 0.019, the NHEJ-attributed indel frequency ([1]; 50 nM) is reported as 0.767 ± 0.041 and the NHEJ-attributed indel frequency ([1]; 100 nM) is reported as 0.723 ± 0.14. The NHEJ-attributed indel frequency ([1]; 200 nM) was 0.604 ± 0.14, the NHEJ-attributed indel frequency ([1]; 500 nM) was 0.537 ± 0.071 and the cell survival ([2]; 20 nM) was 0.264. For the same compound, the cell survival ([2]; 50 nM) was 0.134, the cell survival ([2]; 100 nM) was 0.0522 and the cell survival ([2]; 200 nM) was 0.0162. For the same compound, the cell survival ([2]; 500 nM) was 0.0244, the HDR ([3]; 20 nM) was 1.073 ± 0.0017 and the HDR ([3]; 50 nM) was 0.886 ± 0.049. For the same compound, the HDR ([3]; 100 nM) was 0.791 ± 0.23, the HDR ([3]; 200 nM) was 0.512 ± 0.27 and the HDR ([3]; 500 nM) was 0.471 ± 0.18. It also gave an MMEJ-attributed deletion frequency ([4]; 20 nM) of 0.749 ± 0.1, an MMEJ-attributed deletion frequency ([4]; 50 nM) of 0.7745 ± 0.0004 and an MMEJ-attributed deletion frequency ([4]; 100 nM) of 0.739 ± 0.15. It also gave an MMEJ-attributed deletion frequency ([4]; 200 nM) of 0.705 ± 0.15 and an MMEJ-attributed deletion frequency ([4]; 500 nM) of 0.656 ± 0.17.
Work on `CS(=O)(=O)N1CCN(Cc2cc3nc(-c4cccc5[nH]ncc45)nc(N4CCOCC4)c3s2)CC1` [GDC-0941] (in DMSO) yielded an NHEJ-attributed indel frequency ([1]; 20 nM) of 0.978 ± 0.0067, an NHEJ-attributed indel frequency ([1]; 50 nM) of 0.99142 ± 0.00057 and an NHEJ-attributed indel frequency ([1]; 100 nM) of 0.945 ± 0.042. It also gave an NHEJ-attributed indel frequency ([1]; 200 nM) of 0.94 ± 0.041, an NHEJ-attributed indel frequency ([1]; 500 nM) of 0.86 ± 0.063 and a cell survival ([2]; 20 nM) of 0.924. It also gave a cell survival ([2]; 50 nM) of 0.877, a cell survival ([2]; 100 nM) of 0.7 and a cell survival ([2]; 200 nM) of 0.444. It also gave a cell survival ([2]; 500 nM) of 0.15, an HDR ([3]; 20 nM) of 1.15 ± 0.048 and an HDR ([3]; 50 nM) of 1.08 ± 0.0031. It also gave an HDR ([3]; 100 nM) of 1.08 ± 0.075, an HDR ([3]; 200 nM) of 1.14 ± 0.076 and an HDR ([3]; 500 nM) of 1.06 ± 0.19. It also gave an MMEJ-attributed deletion frequency ([4]; 20 nM) of 1.02 ± 0.14, an MMEJ-attributed deletion frequency ([4]; 50 nM) of 0.875 ± 0.054 and an MMEJ-attributed deletion frequency ([4]; 100 nM) of 0.874 ± 0.016. It also gave an MMEJ-attributed deletion frequency ([4]; 200 nM) of 0.926 ± 0.2 and an MMEJ-attributed deletion frequency ([4]; 500 nM) of 0.887 ± 0.078.
In the case of `CN(C)C(=O)Oc1cccc([N+](C)(C)C)c1` [Hodostin] (in DMSO), the NHEJ-attributed indel frequency ([1]; 2000 nM) is reported as 0.983 ± 0.013, the NHEJ-attributed indel frequency ([1]; 5000 nM) is reported as 0.992 ± 0.024 and the NHEJ-attributed indel frequency ([1]; 10000 nM) is reported as 0.996 ± 0.04. It also gave an NHEJ-attributed indel frequency ([1]; 20000 nM) of 0.9928 ± 0.0066, an NHEJ-attributed indel frequency ([1]; 50000 nM) of 0.992 ± 0.029 and a cell survival ([2]; 2000 nM) of 0.969. The cell survival ([2]; 5000 nM) was 1.28, the cell survival ([2]; 10000 nM) was 1 and the cell survival ([2]; 20000 nM) was 1.14. It also gave a cell survival ([2]; 50000 nM) of 1.29, an HDR ([3]; 2000 nM) of 1.13 ± 0.068 and an HDR ([3]; 5000 nM) of 1.1 ± 0.087. The HDR ([3]; 10000 nM) was 1.05 ± 0.15, the HDR ([3]; 20000 nM) was 1.15 ± 0.044 and the HDR ([3]; 50000 nM) was 1.24 ± 0.054. It also gave an MMEJ-attributed deletion frequency ([4]; 2000 nM) of 0.943 ± 0.1, an MMEJ-attributed deletion frequency ([4]; 5000 nM) of 0.965 ± 0.13 and an MMEJ-attributed deletion frequency ([4]; 10000 nM) of 0.922 ± 0.014. The MMEJ-attributed deletion frequency ([4]; 20000 nM) was 0.944 ± 0.085 and the MMEJ-attributed deletion frequency ([4]; 50000 nM) was 1.05 ± 0.12.
